Structures are written as SMILES.

T1 sequence (P47898 whole entry): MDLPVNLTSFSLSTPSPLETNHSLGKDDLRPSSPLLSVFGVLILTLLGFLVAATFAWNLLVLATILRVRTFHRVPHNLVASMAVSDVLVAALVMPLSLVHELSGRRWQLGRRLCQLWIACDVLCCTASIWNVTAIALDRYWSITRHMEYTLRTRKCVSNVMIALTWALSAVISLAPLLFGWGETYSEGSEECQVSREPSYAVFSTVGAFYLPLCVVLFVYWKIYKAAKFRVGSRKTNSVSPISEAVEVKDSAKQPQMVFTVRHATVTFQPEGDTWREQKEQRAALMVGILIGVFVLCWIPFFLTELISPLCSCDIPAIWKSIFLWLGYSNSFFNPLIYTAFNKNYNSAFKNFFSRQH

The test has as its target T1, recombinant human 5-HT5A receptor (Homo sapiens, UniProt P47898).
T1 construct: expressed in transfected cells; host or cells: HEK-EBNA (Human Embryonic Kidney-EBNA) cells, transient cDNA expression; membranes
Nature of the test: [3H]LSD radioligand binding assay. The settings on record: [3H]LSD (approximately 1 nM); membranes from transiently expressed 5-HT5A receptors in HEK-EBNA cells; Ki from IC50 by Cheng-Prussoff equation. On the procedure: A [^3H]LSD radioligand binding assay was used to determine the affinity of the compounds for the recombinant human 5-HT5A receptor, in membranes from transiently (cDNA) expressed 5-HT5A receptors in Human Embryonic Kidney-EBNA (HEK-EBNA) cells. Assay buffer consisted of Tris (50 mM) buffer containing 1 mM EGTA, 10 mM MgCl2 (pH 7.4) and 10 μM pargyline. The binding assay was carried out in 96-well-plates in the presence of [^3H]LSD (approximately 1 nM), approximately 2 μg/well of membrane protein, and 0.5 mg of Ysi-poly-1-lysine SPA beads in a final volume of 200 μl of buffer. Non-specific binding was defined using methiothepin 2 μM. Compounds were tested at 10 concentrations. All assays were conducted in duplicate and repeated at least two times. Assay plates were incubated for 120 min at room temperature before centrifugation. Bound ligand was determined using a Packard Topcount scintillation counter. IC50 values were calculated using a non-linear curve fitting program and Ki values calculated using the Cheng-Prussoff equation.
`O=C(Nc1ccc2nc(N[C@@H]3CCc4ccccc43)ccc2c1)NC1CCOCC1` [Example 19, 1-[2-((R)-Indan-1-ylamino)-quinolin-6-yl]-3-(tetrahydro-pyran-4-yl)-urea]: the Ki (commonly a measure of affinity in units of concentration, obtained from inhibition or displacement) came out at 4 nM.

In the case of `O=C(Nc1ccc2nc(N[C@@H]3CCc4ccccc43)ccc2c1)NC1CCNCC1` [Example 39, 1-[2-((R)-Indan-1-ylamino)-quinolin-6-yl]-3-piperidin-4-yl-urea], the Ki turned out to be 3.9 nM.

Consider `COCCN1CCC(NC(=O)Nc2ccc3nc(N[C@@H]4CCc5ccccc54)ccc3c2)CC1` [Example 43, 1-[2-((R)-Indan-1-ylamino)-quinolin-6-yl]-3-[1-(2-methoxy-ethyl)-piperidin-4-yl]-urea], for which the Ki was determined as 2.5 nM.

As to `O=C(Nc1ccc2nc(NC3CCc4cc(F)ccc43)ccc2c1)NC1CCN(CCO)CC1` (racemic) [Example 197, rac-1-[2-(5-Fluoro-indan-1-ylamino)-quinolin-6-yl]-3-[1-(2-hydroxy-ethyl)-piperidin-4-yl]-urea], the inhibition constant (Ki) is 3.5 nM.

With `CN(C)S(=O)(=O)Nc1ccc2nc(N[C@@H]3CCc4ccccc43)ccc2c1` [Example 66, N′-{2-[(1R)-2,3-dihydro-1H-inden-1-ylamino]quinolin-6-yl}-N,N-dimethylsulfamide], the inhibition constant (Ki) worked out at 5.6 nM.

As for `O=S(=O)(Nc1ccc2nc(N[C@@H]3CCc4ccccc43)ccc2c1)N1C[C@@H]2C[C@H]1CO2` [Example 88, (1S,4S)-2-Oxa-5-aza-bicyclo[2.2.1]heptane-5-sulfonic acid [2-((R)-indan-1-ylamino)-quinolin-6-yl]-amide], the inhibition constant (Ki) stood at 2.5 nM.

For `CC(C)N1CCC(NC(=O)Nc2ccc3nc(NC4CCc5ccc(F)cc54)ccc3c2)CC1` (racemic) [Example 155, rac-1-[2-(6-Fluoro-indan-1-ylamino)-quinolin-6-yl]-3-(1-isopropyl-piperidin-4-yl)-urea], the Ki came out at 6.3 nM.

As to `COc1cccc2c1C(Nc1ccc3cc(NC(=O)NC4CCN(C(=O)CC(F)(F)F)CC4)ccc3n1)CC2` (racemic) [Example 52, rac-1-[2-(7-Methoxy-indan-1-ylamino)-quinolin-6-yl]-3-[1-(3,3,3-trifluoro-propionyl)-piperidin-4-yl]-urea], the Ki was found to be 7.5 nM.

Take `COc1ccc(C)c2c1C(Nc1ccc3cc(NC(=O)NC(C)C)ccc3n1)CC2` (racemic) [Example 93, rac-1-Isopropyl-3-[2-(7-methoxy-4-methyl-indan-1-ylamino)-quinolin-6-yl]-urea]: the inhibitory constant (Ki) is 8.7 nM.

Turning to `O=C(Nc1ccc2nc(N[C@@H]3CCc4ccccc43)ccc2c1)NC1CCCCC1` [Example 5, 1-Cyclohexyl-3-[2-((R)-indan-1-ylamino)-quinolin-6-yl]-urea], the inhibitory constant (Ki) was found to be 2.9 nM.

On to `CC(C)NC(=O)Nc1ccc2nc(N[C@@H]3CCc4ccccc43)ccc2c1` [Example 3, 1-[2-((R)-Indan-1-ylamino)-quinolin-6-yl]-3-isopropyl-urea], for which the inhibition constant Ki came to 2.5 nM.

As to `COc1cccc2c1C(Nc1ccc3cc(N)ccc3n1)CC2` (racemic) [Example 172, rac-N^2-(7-Methoxy-indan-1-yl)-quinoline-2,6-diamine], the inhibition constant (Ki) was determined as 3.3 nM.

Take `CC(C)OC(=O)Nc1ccc2nc(N[C@@H]3CCc4ccccc43)ccc2c1` [Example 138, [2-((R)-Indan-1-ylamino)-quinolin-6-yl]-carbamic acid isopropyl ester]: the Ki amounted to 8 nM.

As to `NC(=S)Nc1ccc2nc(N[C@@H]3CCc4ccccc43)ccc2c1` [Example 149, [2-((R)-Indan-1-ylamino)-quinolin-6-yl]-thiourea], the Ki turned out to be 14.8 nM.

On to `COCCN1CCC(NC(=O)Nc2ccc3nc(NC4CCCc5cccc(OC)c54)ccc3c2)CC1` (racemic) [Example 58, rac-1-[1-(2-Methoxy-ethyl)-piperidin-4-yl]-3-[2-(8-methoxy-1,2,3,4-tetrahydro-naphthalen-1-ylamino)-quinolin-6-yl]-urea], for which the Ki was determined as 5.3 nM.

Regarding `CC(C)(C)NC(=O)Nc1ccc2nc(N[C@@H]3CCc4ccccc43)ccc2c1` [Example 8, 1-tert-Butyl-3-[2-((R)-indan-1-ylamino)-quinolin-6-yl]-urea], the inhibitory constant (Ki) was determined as 10.9 nM.

For the compound `COc1cccc2c1C(Nc1ccc3cc(NC(=O)NC(C)C)ccc3n1)CCC2` (racemic) [Example 15, rac-1-Isopropyl-3-[2-(8-methoxy-1,2,3,4-tetrahydro-naphthalen-1-ylamino)-quinolin-6-yl]-urea], the Ki stood at 7.7 nM.

For `CN1CCN(CC(=O)Nc2ccc3nc(N[C@@H]4CCc5ccccc54)ccc3c2)CC1` [Example 210, N-[2-((R)-Indan-1-ylamino)-quinolin-6-yl]-2-(4-methyl-piperazin-1-yl)-acetamide], the Ki was determined as 6.7 nM.

In the case of `O=C(NCC1CC1)Nc1ccc2nc(N[C@@H]3CCc4ccccc43)ccc2c1` [Example 23, 1-Cyclopropylmethyl-3-[2-((R)-indan-1-ylamino)-quinolin-6-yl]-urea], the inhibition constant Ki was 4.7 nM.

Regarding `COc1cccc2c1C(Nc1ccc3cc(NC(=O)NC4CCN(CCC(F)(F)F)CC4)ccc3n1)CC2` (racemic) [Example 47, rac-1-[2-(7-Methoxy-indan-1-ylamino)-quinolin-6-yl]-3-[1-(3,3,3-trifluoro-propyl)-piperidin-4-yl]-urea], the inhibition constant (Ki) was 3 nM.

For `CS(=O)(=O)CCN1CCC(NC(=O)Nc2ccc3nc(N[C@@H]4CCc5ccccc54)ccc3c2)CC1` [Example 135, 1-[2-((R)-Indan-1-ylamino)-quinolin-6-yl]-3-[1-(2-methanesulfonyl-ethyl)-piperidin-4-yl]-urea], the Ki came out at 5.7 nM.

In the case of `O=S(=O)(Nc1ccc2nc(N[C@@H]3CCc4ccccc43)ccc2c1)N1CCC(F)(F)C1` [Example 74, 3,3-Difluoro-pyrrolidine-1-sulfonic acid [2-((R)-indan-1-ylamino)-quinolin-6-yl]-amide], the inhibition constant Ki turned out to be 8.9 nM.

For `COCCN1CCC(NC(=O)Nc2ccc3nc(NC4CCc5cccc(OC)c54)ccc3c2)CC1` (racemic) [Example 45, rac-1-[1-(2-Methoxy-ethyl)-piperidin-4-yl]-3-[2-(7-methoxy-indan-1-ylamino)-quinolin-6-yl]-urea], the inhibitory constant (Ki) amounted to 3 nM.

Turning to `CC(C)N=C(Nc1ccc2nc(N[C@@H]3CCc4ccccc43)ccc2c1)NC(C)C` [Example 166, N-[2-((R)-Indan-1-ylamino)-quinolin-6-yl]-N′,N″-diisopropyl-guanidine], the inhibitory constant (Ki) amounted to 33.7 nM.

As to `COc1cccc2c1C(Nc1ccc3cc(NC(=O)N(C)C4CCN(CC(C)(C)O)CC4)ccc3n1)CC2` (racemic) [Example 191, rac-1-[1-(2-Hydroxy-2-methyl-propyl)-piperidin-4-yl]-3-[2-(7-methoxy-indan-1-ylamino)-quinolin-6-yl]-1-methyl-urea], the inhibition constant Ki turned out to be 6.9 nM.

Turning to `COc1cccc2c1C(Nc1ccc3cc(NC(=O)CN4CCN(C)CC4)ccc3n1)CC2` (racemic) [Example 139, rac-N-[2-(7-Methoxy-indan-1-ylamino)-quinolin-6-yl]-2-(4-methyl-piperazin-1-yl)-acetamide], the inhibitory constant (Ki) stood at 4.4 nM.

With `O=S(=O)(Nc1ccc2nc(N[C@@H]3CCc4ccccc43)ccc2c1)N1CCOCC1` [Example 76, Morpholine-4-sulfonic acid [2-((R)-indan-1-ylamino)-quinolin-6-yl]-amide], the inhibition constant (Ki) is 9.9 nM.

In the case of `COc1cccc2c1C(Nc1ccc3cc(NC(=O)N(C)C4CCN(CCO)CC4)ccc3n1)CC2` (racemic) [Example 206, rac-1-[1-(2-Hydroxy-ethyl)-piperidin-4-yl]-3-[2-(7-methoxy-indan-1-ylamino)-quinolin-6-yl]-1-methyl-urea], the inhibition constant Ki came out at 6.7 nM.

Turning to `CN(C1CC1)S(=O)(=O)Nc1ccc2nc(N[C@@H]3CCc4ccccc43)ccc2c1` [Example 85, N-cyclopropyl-N′-{2-[(1R)-2,3-dihydro-1H-inden-1-ylamino]quinolin-6-yl}-N-methylsulfamide], the Ki was determined as 9.3 nM.

As for `COc1cccc2c1C(Nc1ccc3cc(NC(=O)NC(C)C)ccc3n1)CC2` (single isomer, unassigned; (-)) [Example 13, (−)-1-Isopropyl-3-[2-(7-methoxy-indan-1-ylamino)-quinolin-6-yl]-urea], the Ki was found to be 0.9 nM.

Regarding `CC(C)N1CCC(NC(=O)Nc2ccc3nc(NC4CCc5cccc(F)c54)ccc3c2)CC1` (racemic) [Example 156, rac-1-[2-(7-Fluoro-indan-1-ylamino)-quinolin-6-yl]-3-(1-isopropyl-piperidin-4-yl)-urea], the Ki was determined as 3.8 nM.

As to `COc1cccc2c1C(Nc1ccc3cc(NC(=O)NC4CCN(C(C)C)CC4)ccc3n1)CO2` (racemic) [Example 180, rac-1-(1-Isopropyl-piperidin-4-yl)-3-[2-(4-methoxy-2,3-dihydro-benzofuran-3-ylamino)-quinolin-6-yl]-urea], the Ki worked out at 2.8 nM.

With `COc1cccc2c1C(Nc1ccc3cc(NC(=O)NC4CCN(C)CC4)ccc3n1)CC2` (racemic) [Example 40, rac-1-[2-(7-Methoxy-indan-1-ylamino)-quinolin-6-yl]-3-(1-methyl-piperidin-4-yl)-urea], the Ki amounted to 2.2 nM.

With `COc1cccc2c1C(Nc1ccc3cc(NC(=O)NC4CC5CCCC(C4)N5C)ccc3n1)CC2` (racemic) [Example 50, rac-1-[2-(7-Methoxy-indan-1-ylamino)-quinolin-6-yl]-(9-methyl-9-aza-bicyclo[3.3.1]non-3-yl)-urea], the inhibition constant Ki was determined as 5.2 nM.

The values are drawn from US8183380B2, “2-aminoquinolines” (Hoffmann-La Roche Inc., priority 2008, dated 2012).
